Reference: patent US20200261391A1, “METHODS OF REDUCING THE RISK OF A CARDIOVASCULAR EVENT IN A STATIN-TREATED SUBJECT BY INCREASING SERUM AND PLASMA EPA AND DPA LEVELS” (Amarin Pharmaceuticals Ireland Limited, priority 2019, published 2020)

Assays:
[1] = tested on: patients with elevated triglyceride levels on statin therapy; assay: REDUCE-IT recurrent and total ischemic events (Example 2; Andersen-Gill and Wei-Lin-Weissfeld models); type: in vivo, human; settings: for total key secondary endpoint events, HR / total key secondary endpoint events, number: without adjustment for stratification differences
From the text: The following study was a multi-center, placebo-controlled clinical trial the details of which are described above in Example 1, the REDUCE-IT design. […] Randomization was stratified by cardiovascular risk cohort (i.e., secondary or primary prevention), use of ezetimibe, and by geographic region.
The primary outcome for the study was total recurrent events consisting of the composite of cardiovascular death, nonfatal myocardial infarction, nonfatal stroke, coronary revascularization, or hospitalization for unstable angina. Recurrent event analyses were also performed for the key secondary endpoint, a composite of cardiovascular death, non-fatal myocardial infarction, or non-fatal stroke. For each of these composite endpoints, the effects of icosapent ethyl in the secondary and primary prevention strata were examined separately.
Demographic and baseline disease characteristics are presented using frequencies and percentages for categorical variables and medians with interquartile ranges for continuous variables. Between treatment group comparisons were derived using the chi-square test for categorical variables and Wilcoxon rank test for continuous variables. All clinical endpoint events used in the efficacy analyses were adjudicated by an independent Clinical Endpoint Committee (CEC) who were blinded to the treatment assignment. Since the primary efficacy endpoint was the time from randomization to the first occurrence of any component of the composite endpoint, and recurrence of such events within each patient is possible, a pre-specified analysis using a Cox proportional-hazard with the counting-process formulation of Andersen and Gill was performed to model the first and all recurrent cardiovascular events. Hazard ratios (HR) and corresponding 95% confidence intervals (CI) are reported from this model. In addition, as a marginal model and an extension of survival models based on the Cox proportional hazard model, the modified Wei-Lin-Weissfeld (WLW) method for analysis of recurrent events in the presence of deaths was carried out as a supportive analysis. In addition, as pre-specified, a recurrent event analysis using the Andersen-Gill and Wei-Lin-Weissfeld methods were carried out for the individual primary event components other than CV death. Though not pre-specified, additional recurrent event analyses were performed for the key secondary endpoint, which is a composite of CV death, non-fatal MI, or non-fatal stroke, and for the primary endpoint and the key secondary endpoint in the primary and secondary prevention strata to explore further the consistency of clinical benefit of icosapent ethyl. In subgroup analyses of the two cardiovascular risk strata (i.e., primary and secondary prevention), site-level discrepancies in cardiovascular risk group assignment occurring at entry and detected during the study (1.8%) were adjusted to conform with documented medical history data prior to randomization. All efficacy analyses were performed according to the intention-to-treat principle. All tests were based on a 2-sided nominal significance level of 5% with no adjustments for multiple comparisons.

[2] = tested on: patients with elevated triglyceride levels on statin therapy; assay: REDUCE-IT endpoints by EPA blood level tertile in the icosapent ethyl group compared to placebo; type: in vivo, human
Description: To assess the relationship between on-treatment hsCRP and the primary and key secondary endpoints, subgroup analyses were carried out as done for the ITT population for patients grouped according to values greater or equal to or less than […] at baseline and at 2 years. To assess the relationship between on-treatment serum EPA and the primary and key secondary endpoints, Kaplan-Meier (KM) curves were produced for AMR101 treated patients grouped into tertiles based on their values at year 1 and were compared with the placebo-treated patients.
This is a study aimed towards determining a relative risk reduction (RRR) between subjects stratified by EPA tertiles in the REDUCE-IT clinical trial described above in Example 1. Samples were obtained from those subjects and total EPA and AA levels in human serum and plasma samples were determined according at least to the methods described in Example 7.
The objective of this study is to assess the effects of administering icosapent ethyl at 4 g per day to patients from the REDUCE-IT trial of Example 1. More specifically, patients from the REDUCE-IT trial of Example 1 were stratified by their EPA levels into one of three tertiles. Following stratification, the objective was to determine if the RRR differs between patients having EPA levels in the three different tertiles. For the data collected as shown in Tables 38-43 and FIGS. 52, 53, and 56-59, the tertiles were established based on data collected from subjects at 1 year, 2 years, and last visit following icosapent ethyl administration compared to placebo. Data are presented as an average of 1 year, 2 year, […], and end of study values. The data was further analyzed use both pooled and unpooled statistically methods.

[3] = Wei-Lin-Weissfeld model, vs placebo
[4] = per 100 patients treated for five years
[5] = EPA >189 μg/mL, on-treatment average of year 1, year 2, last visit
[6] = EPA >114.7 to ≤189 μg/mL, on-treatment average of year 1, year 2, last visit
[7] = EPA ≤114.7 μg/mL, on-treatment average of year 1, year 2, last visit

CC/C=C\C/C=C\C/C=C\C/C=C\C/C=C\CCCC(=O)OCC [icosapent ethyl, eicosapentaenoic acid ethyl ester]
first events, reduction ([1]; Example 2): 25%
second events, reduction ([1]; Example 2): 28%
third or more events, reduction ([1]; Example 2): 50%
total events for primary composite efficacy outcome, relative risk reduction ([1]; Example 2): 32%
first occurrence of primary composite endpoint, HR [1, 3]: 0.75
second occurrence of primary composite endpoint, HR [1, 3]: 0.72
additional primary endpoint events, total reduction vs placebo (number) ([1]; in vivo): 179
first primary endpoint events, total reduction vs placebo (number) ([1]; in vivo): 196
second primary endpoint events, total reduction vs placebo (number) ([1]; in vivo): 164
total primary endpoint events, number ([1]; overall trial, placebo 1,724): 1,185
total key secondary endpoints, number ([1]; overall, placebo 861): 590
total key secondary endpoints, HR ([1]; overall, vs placebo): 0.71
cardiovascular deaths prevented [1, 4]: 1
coronary revascularizations prevented [1, 4]: 8
episodes of unstable angina prevented [1, 4]: 2
myocardial infarctions prevented [1, 4]: 4
strokes prevented [1, 4]: 1
additional primary endpoint events, number ([1]; placebo 360): 131
second primary endpoint events, number ([1]; placebo 463): 299
first primary endpoint events, number ([1]; placebo 901): 705
total key secondary endpoints, HR ([1]; primary prevention stratum): 0.71
total primary endpoint events, HR ([1]; primary prevention stratum, adjusted stratification): 0.79
total primary endpoint events, number ([1]; primary prevention stratum, adjusted stratification, placebo 256): 197
total primary endpoint events, HR ([1]; primary prevention stratum, without adjusting for stratification differences): 0.86
total primary endpoint events, number ([1]; primary prevention stratum, without adjusting for stratification differences, placebo 263): 221
total key secondary endpoint events, HR ([1]; primary prevention): 0.78
total key secondary endpoint events, number ([1]; primary prevention, placebo 142): 112
total key secondary endpoints, HR ([1]; secondary prevention stratum): 0.70
total primary endpoint events, HR ([1]; secondary prevention stratum, adjusted stratification): 0.66
total primary endpoint events, number ([1]; secondary prevention stratum, adjusted stratification, placebo 1,468): 988
total primary endpoint events, HR ([1]; secondary prevention stratum, without adjusting for stratification differences): 0.65
total primary endpoint events, number ([1]; secondary prevention stratum, without adjusting for stratification differences, placebo 1,461): 964
total key secondary endpoint events, HR ([1]; secondary prevention stratum): 0.69
total key secondary endpoint events, number ([1]; secondary prevention stratum, placebo 671): 478
total primary endpoint events, HR ([1]; vs placebo, overall trial): 0.68
key secondary endpoint HR, highest EPA tertile vs. placebo ([2]; EPA >189 μg/mL): 0.65
primary endpoint HR, highest EPA tertile vs. placebo ([2]; EPA >189 μg/mL): 0.65
HR (95% CI), Key Secondary Endpoint, Highest EPA tertile vs Placebo [2, 5]: 0.65 (0.54, 0.80)
HR (95% CI), Primary Endpoint, Highest EPA tertile vs Placebo [2, 5]: 0.65 (0.55, 0.76)
key secondary endpoint HR, middle EPA tertile vs. placebo ([2]; EPA >114.7 to ≤189 μg/mL): 0.65
primary endpoint HR, middle EPA tertile vs. placebo ([2]; EPA >114.7 to ≤189 μg/mL): 0.72
HR (95% CI), Key Secondary Endpoint, Middle EPA tertile vs Placebo [2, 6]: 0.65 (0.53, 0.79)
HR (95% CI), Primary Endpoint, Middle EPA tertile vs Placebo [2, 6]: 0.72 (0.62, 0.85)
key secondary endpoint HR, lowest EPA tertile vs. placebo ([2]; EPA blood level ≤114.7 μg/mL): 0.89
primary endpoint HR, lowest EPA tertile vs. placebo ([2]; EPA blood level ≤114.7 μg/mL): 0.84
HR (95% CI), Key Secondary Endpoint, Lowest EPA tertile vs Placebo [2, 7]: 0.89 (0.74, 1.07)
HR (95% CI), Primary Endpoint, Lowest EPA tertile vs Placebo [2, 7]: 0.84 (0.72, 0.98)
primary composite endpoint HR, highest EPA tertile vs. placebo ([2]; FIG. 53, ITT, EPA >190.55 μg/mL): 0.63
primary composite endpoint HR, middle EPA tertile vs. placebo ([2]; FIG. 53, ITT, EPA >116.9 to ≤190.55 μg/mL): 0.74
primary composite endpoint HR, lowest EPA tertile vs. placebo ([2]; FIG. 53, ITT, EPA ≤116.9 μg/mL): 0.85
